Tests used:
B. subtilis 168 [1] = experiment: fitness (endpoint OD595 vs no drug) (fraction); higher = more growth
How it was run: (§1)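 Bacterial growth was followed in 384-well plates seeded at OD595 0.01, with 30 µl per well, or 55 µl for S. pneumoniae, in TSB, LB Lennox or CY at 37 °C. OD595 was read every 30 min for 14 h, and each reading had the first reading subtracted as background. Fitness is the background-corrected optical density at entry into stationary phase divided by the robust mean of the no-drug control wells. This ratio is capped at 1.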

S. aureus DSM 20231 [2] = experiment: as above
How it was run: as §1

S. pneumoniae D39V [3] = experiment: as above
How it was run: as §1

B. subtilis 168 [4] = experiment: Bliss interaction score (quartile over a dose matrix) (fitness difference); higher = more antagonism (negative = synergy)
How it was run: (§2)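 Fitness was OD595 at entry into stationary phase divided by the plate's robust no-drug mean and capped at 1; single-drug fitness was inferred from combination data. The Bliss score is observed minus expected (product) fitness, summarised by quartiles over technical, biological and donor/recipient replicates.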

S. aureus DSM 20231 [5] = experiment: as above
How it was run: as §2

S. aureus Newman = experiment: as above
How it was run: as §2

S. pneumoniae D39V [6] = experiment: as above
How it was run: as §2
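Throughout, for Bliss interaction score (quartile over a dose matrix): first quartile when negative (synergy) and third quartile when positive (antagonism).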

CCC[C@@H]1C[C@@H](C(=O)N[C@@H]([C@H]2O[C@H](SC)[C@H](O)[C@@H](O)[C@H]2O)[C@@H](C)O)N(C)C1 [Lincomycin] + C[n+]1ccc(-c2cc[n+](C)cc2)cc1 [Paraquat]
Details	fitness
B. subtilis 168 [1], first compound 0.1 µg/mL, partner 1.25 µg/mL	0.92
B. subtilis 168 [1], first compound 0.1 µg/mL, partner 2.5 µg/mL	0.92
B. subtilis 168 [1], first compound 0.1 µg/mL, partner 5 µg/mL	0.968
B. subtilis 168 [1], first compound 0.2 µg/mL, partner 1.25 µg/mL	0.923
B. subtilis 168 [1], first compound 0.2 µg/mL, partner 2.5 µg/mL	0.855
B. subtilis 168 [1], first compound 0.2 µg/mL, partner 5 µg/mL	0.833
B. subtilis 168 [1], first compound 0.4 µg/mL, partner 1.25 µg/mL	0.878
B. subtilis 168 [1], first compound 0.4 µg/mL, partner 2.5 µg/mL	0.845
B. subtilis 168 [1], first compound 0.4 µg/mL, partner 5 µg/mL	0.814
S. aureus DSM 20231 [2], first compound 0.1 µg/mL, partner 1.25 µg/mL	0.801
S. aureus DSM 20231 [2], first compound 0.1 µg/mL, partner 2.5 µg/mL	0.802
S. aureus DSM 20231 [2], first compound 0.1 µg/mL, partner 5 µg/mL	0.838
S. aureus DSM 20231 [2], first compound 0.2 µg/mL, partner 1.25 µg/mL	0.739
S. aureus DSM 20231 [2], first compound 0.2 µg/mL, partner 2.5 µg/mL	0.719
S. aureus DSM 20231 [2], first compound 0.2 µg/mL, partner 5 µg/mL	0.692
S. aureus DSM 20231 [2], first compound 0.4 µg/mL, partner 5 µg/mL	0.28
S. pneumoniae D39V [3], first compound 0.215 µg/mL, partner 1.5 µg/mL	0.885
S. pneumoniae D39V [3], first compound 0.215 µg/mL, partner 3 µg/mL	0.863
S. pneumoniae D39V [3], first compound 0.215 µg/mL, partner 6 µg/mL	0.814
S. pneumoniae D39V [3], first compound 0.43 µg/mL, partner 1.5 µg/mL	0.774
S. pneumoniae D39V [3], first compound 0.43 µg/mL, partner 3 µg/mL	0.733
S. pneumoniae D39V [3], first compound 0.43 µg/mL, partner 6 µg/mL	0.711
S. pneumoniae D39V [3], first compound 0.86 µg/mL, partner 1.5 µg/mL	0.56
S. pneumoniae D39V [3], first compound 0.86 µg/mL, partner 3 µg/mL	0.407
S. pneumoniae D39V [3], first compound 0.86 µg/mL, partner 6 µg/mL	0.453

fitness, S. pneumoniae D39V [3], one replicate
Details	first compound 0.2 µg/mL	first compound 0.4 µg/mL	first compound 0.8 µg/mL
partner 1.5 µg/mL	0.83	0.758	0.675
partner 3 µg/mL	0.866	0.751	0.729
partner 6 µg/mL	0.889	0.802	0.776

Details	Bliss interaction score
B. subtilis 168 [4]	0.0402
S. aureus DSM 20231 [5]	-0.0564
S. aureus Newman	-0.191
S. pneumoniae D39V [6]	0.0842

CCC[C@@H]1C[C@@H](C(=O)N[C@@H]([C@H]2O[C@H](SC)[C@H](O)[C@@H](O)[C@H]2O)[C@@H](C)O)N(C)C1 [Lincomycin] + Cc1cc(NS(=O)(=O)c2ccc(N)cc2)no1 [Sulfamethoxazol]
fitness
Details	first compound 0.1 µg/mL	first compound 0.2 µg/mL	first compound 0.215 µg/mL	first compound 0.4 µg/mL	first compound 0.43 µg/mL	first compound 0.86 µg/mL
B. subtilis 168 [1], partner 1 µg/mL	0.831	0.862	–	0.891	–	–
B. subtilis 168 [1], partner 2 µg/mL	0.872	0.874	–	0.841	–	–
B. subtilis 168 [1], partner 4 µg/mL	0.893	0.938	–	0.895	–	–
S. aureus DSM 20231 [2], partner 1 µg/mL	0.82	0.616	–	0.343	–	–
S. aureus DSM 20231 [2], partner 2 µg/mL	0.815	0.687	–	0.37	–	–
S. aureus DSM 20231 [2], partner 4 µg/mL	0.828	0.697	–	0.304	–	–
S. pneumoniae D39V [3], partner 1 µg/mL	–	–	0.746	–	0.658	0.252
S. pneumoniae D39V [3], partner 2 µg/mL	–	–	0.762	–	0.676	0.214
S. pneumoniae D39V [3], partner 4 µg/mL	–	–	0.786	–	0.691	0.265

fitness, one replicate
Details	first compound 0.2 µg/mL	first compound 0.4 µg/mL	first compound 0.8 µg/mL	first compound 1.6 µg/mL
B. subtilis 168 [1], partner 0.5 µg/mL	–	0.903	0.806	0.862
B. subtilis 168 [1], partner 1 µg/mL	–	–	0.76	0.698
B. subtilis 168 [1], partner 2 µg/mL	–	–	0.795	0.788
S. pneumoniae D39V [3], partner 1 µg/mL	0.731	0.674	0.323	–
S. pneumoniae D39V [3], partner 2 µg/mL	0.761	0.688	0.346	–
S. pneumoniae D39V [3], partner 4 µg/mL	0.724	0.621	0.308	–

Details	Bliss interaction score
B. subtilis 168 [4]	-0.0615
S. aureus DSM 20231 [5]	-0.0797
S. aureus Newman	0.0671
S. pneumoniae D39V [6]	-0.128

COc1c(N2C[C@@H]3CCCN[C@@H]3C2)c(F)cc2c(=O)c(C(=O)O)cn(C3CC3)c12 [Moxifloxacin] + COc1cc(Cc2cnc(N)nc2N)cc(OC)c1OC [Trimethoprim]
one replicate
Details	fitness
B. subtilis 168 [1], first compound 0.0312 µg/mL, partner 0.1 µg/mL	0.0166
B. subtilis 168 [1], first compound 0.0312 µg/mL, partner 0.2 µg/mL	0.0497
B. subtilis 168 [1], first compound 0.0312 µg/mL, partner 0.4 µg/mL	0.0325
B. subtilis 168 [1], first compound 0.0625 µg/mL, partner 0.1 µg/mL	0.0397
B. subtilis 168 [1], first compound 0.0625 µg/mL, partner 0.2 µg/mL	0.0393
B. subtilis 168 [1], first compound 0.0625 µg/mL, partner 0.4 µg/mL	0.011
B. subtilis 168 [1], first compound 0.125 µg/mL, partner 0.1 µg/mL	0.0162
B. subtilis 168 [1], first compound 0.125 µg/mL, partner 0.2 µg/mL	0.0361
B. subtilis 168 [1], first compound 0.125 µg/mL, partner 0.4 µg/mL	0.0203
B. subtilis 168 [1], first compound 2 µg/mL, partner 1 µg/mL	0.0073
B. subtilis 168 [1], first compound 2 µg/mL, partner 2 µg/mL	0.0287
B. subtilis 168 [1], first compound 4 µg/mL, partner 1 µg/mL	0.0329
B. subtilis 168 [1], first compound 4 µg/mL, partner 2 µg/mL	0.0297
B. subtilis 168 [1], first compound 8 µg/mL, partner 1 µg/mL	0.0126
B. subtilis 168 [1], first compound 8 µg/mL, partner 2 µg/mL	0.0291
S. aureus DSM 20231 [2], first compound 0.0075 µg/mL, partner 0.125 µg/mL	0.719
S. aureus DSM 20231 [2], first compound 0.015 µg/mL, partner 0.125 µg/mL	0.627
S. aureus DSM 20231 [2], first compound 0.06 µg/mL, partner 0.125 µg/mL	0.653
S. aureus DSM 20231 [2], first compound 0.06 µg/mL, partner 0.25 µg/mL	0.44
S. aureus DSM 20231 [2], first compound 0.06 µg/mL, partner 0.5 µg/mL	0.191
S. aureus DSM 20231 [2], first compound 0.12 µg/mL, partner 0.125 µg/mL	0.343
S. aureus DSM 20231 [2], first compound 0.12 µg/mL, partner 0.25 µg/mL	0.139
S. aureus DSM 20231 [2], first compound 0.12 µg/mL, partner 0.5 µg/mL	0.0509

fitness
Details	partner 0.125 µg/mL	partner 0.25 µg/mL	partner 0.5 µg/mL	partner 1 µg/mL
B. subtilis 168 [1], first compound 0.0312 µg/mL	0.0627	0.103	0.0656	–
B. subtilis 168 [1], first compound 0.0625 µg/mL	0.0366	0.0436	0.0539	–
B. subtilis 168 [1], first compound 0.125 µg/mL	0.0399	0.0294	0.0335	–
B. subtilis 168 [1], first compound 2 µg/mL	–	–	0.0293	–
B. subtilis 168 [1], first compound 4 µg/mL	–	–	0.0245	–
B. subtilis 168 [1], first compound 8 µg/mL	–	–	0.0127	–
S. aureus DSM 20231 [2], first compound 0.0075 µg/mL	–	0.559	0.0549	0.0253
S. aureus DSM 20231 [2], first compound 0.015 µg/mL	–	0.525	0.0366	0.0226
S. aureus DSM 20231 [2], first compound 0.03 µg/mL	0.552	0.376	0.041	0.0152

Details	Bliss interaction score
B. subtilis 168 [4]	0.0283
S. aureus DSM 20231 [5]	-0.0854
S. aureus Newman	-0.193
S. pneumoniae D39V [6]	0.0963

COc1cc(Cc2cnc(N)nc2N)cc(OC)c1OC [Trimethoprim] + CC1=C\[C@@H](O)CC(=O)Cc2nc(co2)C(=O)N2CCC=C2C(=O)O[C@H](C(C)C)[C@H](C)/C=C/C(=O)NC\C=C\1 [Virginiamycin M1]
fitness, one replicate
Details	partner 0.0625 µg/mL	partner 0.125 µg/mL	partner 0.25 µg/mL	partner 0.5 µg/mL	partner 1 µg/mL
B. subtilis 168 [1], first compound 0.1 µg/mL	0.85	0.855	0.991	–	–
B. subtilis 168 [1], first compound 0.125 µg/mL	0.738	0.722	0.71	–	–
B. subtilis 168 [1], first compound 0.2 µg/mL	0.755	0.808	0.865	–	–
B. subtilis 168 [1], first compound 0.4 µg/mL	0.57	0.483	0.576	–	–
B. subtilis 168 [1], first compound 1 µg/mL	0.509	0.267	0.282	–	–
B. subtilis 168 [1], first compound 2 µg/mL	0.408	0.285	0.377	–	–
S. aureus DSM 20231 [2], first compound 0.125 µg/mL	0.597	0.715	–	0.7	0.541
S. aureus DSM 20231 [2], first compound 0.25 µg/mL	–	–	–	0.573	0.626
S. aureus DSM 20231 [2], first compound 0.5 µg/mL	–	–	–	0.155	0.204

fitness
Details	first compound 0.125 µg/mL	first compound 0.25 µg/mL	first compound 0.5 µg/mL	first compound 1 µg/mL
B. subtilis 168 [1], partner 0.0625 µg/mL	–	–	0.585	–
B. subtilis 168 [1], partner 0.125 µg/mL	–	0.704	0.471	–
B. subtilis 168 [1], partner 0.25 µg/mL	–	–	0.557	–
S. aureus DSM 20231 [2], partner 0.0625 µg/mL	–	0.576	0.0684	0.0383
S. aureus DSM 20231 [2], partner 0.125 µg/mL	–	0.584	0.0768	0.0445
S. aureus DSM 20231 [2], partner 0.25 µg/mL	0.682	0.618	0.119	0.0595

Details	Bliss interaction score
B. subtilis 168 [4]	0.0852
S. aureus DSM 20231 [5]	-0.0966
S. aureus Newman	0.0354
S. pneumoniae D39V [6]	0.0652

Reference: the supplement of paper PMC10627819
